Measurements reported in patent publication US20050276855A1, “Composition and method using local application of lipophilic lathyrogens sustained release formulations” (priority 2004, published 2005).
“Also recorded” adds a separate entry of the source.

How the values were obtained:
[1] = test system: esophageal stricture; details: young adult rabbits; cited from earlier work
[2] = test system: intraoccular pressure; details: topical, cited from earlier work
[3] = test system: sclera puncture wound; details: locally injected; cited from earlier work
[4] = test system: Schiff base crosslinks of the collagen; assay: Swelling of skin samples in various solutions (collagen crosslink cleavage); parameters: species or system nude mice; details: for Cleavage of non reduced Schiff base crosslinks of collagen: non reduced skin discs; for Cleavage of crosslinks once reduced: crosslinks reduced with sodium borohydrate
From the text: This example documents one of the effects of DPA on the integrity of collagen structure. […] Once the crosslink is reduced (with sodium borohydrate) a stable covalent crosslinks is formed, resistant to any chemical means to break it. The Example also documents that only substances having —SH and —NH2 groups free are effective. Therefore N acetyl cystein is not effective due to the blocking its —NH2 group.
Method: Skin of 4 months old nude mice was dissected, spread on a board and with a 0.5 cm diameter punch several discs were obtained. These were kept in a moist chamber to prevent drying. The discs were weighted and immersed in the following solutions for 1 hour incubation: • 1. Phosphate buffered saline (0.1 M, pH 7.3)-control; • 2. PBS with 10 mg sodium borohydrate in 10 ml; • 3. Some discs from group 1 and 2 were further incubated for 1 hour PBS containing 100 mg cystein, or D-penicillamine or N-acetyl cystein; • 4. After 1 hour incubation in the above solutions, the skin samples were placed into 0.45% acetic acid (pH 3.5) for another hour.
After each incubation time the skins samples were blotted on a filter paper and weighted on a analytical balance with the sensitivity to 0.1 mg.
Swelling in Table 1 is given as mg weight/0.5 cm disc of skin. The data are shown as Mean +/− standard deviation (“SD”).
In this Example the swelling capacity was used as an indicator of the structural stability, namely number of crosslinks in the collagen molecules. More crosslinked collagen swells less than when the bonds are cleaved, resuming the structure of “young” collagen.

[5] = test system: incision skin wound in rats; assay: Breaking strength of incision skin wound in rats after a single local injection; assay type: in vivo; details: for Breaking strength of skin wound, X: Example IV, in thermosensitive polymer (TSP), Sprague-Dawley female rats; for Breaking strength of skin wound, X / Effect on breaking strength versus non-treated controls: 12 days; for Effect on breaking strength of the healing wound: Example III, in polyethylene glycol 600; for Breaking strength / Change in % of control / Effect on breaking strength versus non-treated controls: Example II; for Breaking strength: 12 days after wounding, single injection underneath wound line, DPA 5 mg/0.25 ml, hexyl ester 7.5 mg/0.25 ml, Mean +/− SD; for Change in % of control: breaking strength 12 days after wounding; for Effect on breaking strength versus non-treated controls: in saline
Method: Young adult rats have the hair clipped in the dorsum midline to make a rectangle having the dimensions of about 4 cm by about 9 cm. A full thickness skin incision in the midline of the dorsum of the rat is made about 8 cm long. The wound is closed with 9 to 10 interrupted sutures.
Various treatments are injected in between the sutures, underneath the closed wounds with a 8 cm long gastric needle, inserted at the distal site of the incision wound. After 12 days the animals are terminated, the skin wound is dissected with 2 cm intact skin at both sides. A specially designed multiple razor blade cutter with blades 0.5 cm apart is placed onto the skin, stretched loosely onto a cork lined board and hammered to obtain several (10 to 12) equal width skin strips, having the wound in the middle. Individual skin strips are attached to grips of a tensiometer and breaking strength is determined.
In this Example II, Applicants utilized the above-recited test method to evaluate local administration of unmodified lathyrogens and/or chemically modified lathyrogens, administered in a polymeric carrier.
In certain embodiments, the polymeric carrier comprised a mixture of polylactic and polyglycolic acid of defined molecular weights and proportion, dissolved in N-methylpyrolidone. This polymer was obtained from Atrix Company (CO) as Atrigel 30 which was supposed to be degraded in the tissues within 30 days. […] The rate of its degradation—hydrolysis, determines the rate of the release of the lathyrogen dispersed therein.
The tested lathyrogens, Compound I or derivative thereof, namely D-penicillamine-hexyl ester HCl, i.e. Compound III, wherein R1 is hexyl, was used at the dose of 5 mg/0.25 ml of polymeric carrier (for DPA), or 7.5 mg of Compound III/0.25 ml of polymeric carrier. The formulation was injected after closing the skin wound between the sutures, underneath the wound line. Saline solutions of BAPN and DPA were also administered at the same dose and volume.
Four rats were used in each group. The data recited in Table II are presented as Mean +/− Standard Deviation, based on 20 to 28 determinations in every group. The testing of the breaking strength of the skin wound strips was done 12 days after inflecting the wound. […]

[6] = test system: function of filter surgery; details: systemic administration; cited from earlier work
[7] = test system: esophageal stricture; details: given systemically, without bougienage; cited from earlier work
[8] = test system: peritendinous adhesions; details: 1-2-g/day per os, cited from earlier work
[9] = test system: lacerated tendons; details: systemic administration; cited from earlier work
[10] = test system: scar contracture of intracardiac prosthetic patches; details: systemic; cited from earlier work
[11] = 0.5 cm skin discs, 1 hour PBS, 1 hour PBS containing 100 mg substance, then 1 hour 0.45% acetic acid (pH 3.5)

COc1cc2c(c(OC)c1OC)-c1ccc(OC)c(=O)cc1[C@@H](NC(C)=O)CC2 [colchicine]
Severity of esophageal stricture [1]: severe stricture | Wound healing [1]: delayed wound healing

N#CCCN.N#CCCN.O=C(O)/C=C/C(=O)O [BAPN-F]
Time postoperative pressure was maintained ([2]; after filtration surgery): 26.4+−11 weeks | Overall success rate ([2]; difficult cases of glaucoma): 74% | Postoperative intraoccular pressure ([2]; preoperative pressure 40 mm Hg): 19 mm Hg | Collagen deposition in adjacent muscle [3]: decreased | Wound contraction after puncturing the sclera [3]: inhibited wound contraction

CC(=O)N[C@@H](CS)C(=O)O [N-acetylCYSH, N-acetyl cystein]
Swelling of skin samples, Mean [4, 11]: 32.2 mg weight/0.5 cm disc of skin | Cleavage of non reduced Schiff base crosslinks of collagen [4]: not effective

CCCCCCOC(=O)[C@H](N)C(C)(C)S.Cl [DPA - lipophilic, D-penicillamine-hexyl ester HCl]
Breaking strength of skin wound, X [5]: 321

DPA-hexanal acetone adduct
Effect on breaking strength of the healing wound [5]: no effect

CC(C)(S)C(N)C(=O)O (stereo in doubt) [DPA, D-Penicillamine]
Swelling of skin samples, Mean [4, 11]: 84.0 mg weight/0.5 cm disc of skin | Cleavage of crosslinks once reduced [4]: no effective | Cleavage of non reduced Schiff base crosslinks of collagen [4]: cleaves the non reduced covalent Schiff base crosslinks; also recorded: effectively cleaving | Collagen deposition in adjacent muscle [3]: decreased | Wound contraction after puncturing the sclera [3]: inhibited wound contraction | Effect on the function of filter surgery [6]: not effective | Severity of esophageal stricture [1]: less severe stricture | Breaking strength [5]: 695 +/− 38 g/0.5 cm | Change in % of control [5]: −2% | Effect on breaking strength versus non-treated controls [5]: no differences in the breaking strength

N#CCCN [BAPN, Beta-aminopropionitrile]
Stricture of the esophageal lumen [7]: preventing the stricture of the lumen | Effect in patients after tenolysis [8]: beneficial effect | Side toxic effects ([8]; study discontinued): several side toxic effects | Gliding function of lacerated tendons [9]: significant improvement in the gliding function | Breaking strength [5]: 735 +/− 40 g/0.5 cm | Change in % of control [5]: +14% | Effect on breaking strength versus non-treated controls [5]: no differences in the breaking strength | Scar contracture [10]: inhibition of scar contracture

N[C@@H](CS)C(=O)O [CYSH, cystein]
Swelling of skin samples, Mean [4, 11]: 84.0 mg weight/0.5 cm disc of skin | Cleavage of crosslinks once reduced [4]: no effective | Cleavage of non reduced Schiff base crosslinks of collagen [4]: effectively cleaving

[BH4-].[Na+] [SBH + control, sodium borohydrate]
Swelling of skin samples, Mean ([4]; discs first incubated 1 hour in PBS with 10 mg sodium borohydrate in 10 ml (crosslinks reduced), then substance, then 0.45% acetic acid (pH 3.5)): 27.5 mg weight/0.5 cm disc of skin

CCCCCCNCCC#N [BAPN - lipophilic, hexyl-beta-aminopropionitrile]
Effect on breaking strength of the healing wound [5]: effectiveness | Breaking strength of skin wound, X [5]: 226
